A melting point compilation (Tetko et al.; mined from patent text by program, amines drawn as free bases though some values may be those of a salt)

SMILES | melting point
Cc1cc(Br)cc(C)c1N([Si](C)(C)C)[Si](C)(C)C | 47 to 52 °C
CN1Cc2c(C#N)ncn2-c2cccc(Cl)c2C1=O | 238 to 240 °C
O=C(CC1CC1)N[C@H]1CC[C@H](CCN2CCN(c3nccc4c3CCO4)CC2)CC1 | 193 °C
CCCNC(=O)c1nc2n(c1C)CCc1ccccc1C2OC1CCN(C)CC1 (configuration not stated) | 60 °C
CCCCCCCCCCOc1ccc2c(c1CCC)OC(CCC(=O)O)(CCC(=O)O)CC2=O | 144 to 146 °C
Cc1nnc2n1-c1sc(C#Cc3ccccn3)cc1C(c1ccccc1Cl)=NC2 | 153 to 155 °C
CCOC(=O)CCCC(CNC(=O)OC(C)(C)C)c1ccccc1 (configuration not stated) | 82 to 84 °C
CN(C)c1ccc(S(=O)(=O)N2CC(OC(=O)C(C)(C)C)CC2=O)cc1 (configuration not stated) | 117 to 118 °C
CC(=O)N1CCC(C(=O)N(CCCN2CC3CN(C(=O)c4cccnc4N4CCC4)CC3C2)c2ccc(C)c(Cl)c2)CC1 (configuration not stated) | 72.9 to 74 °C
CCN(CC)c1ccc(S(=O)(=O)N2CC(O)CC2=O)cc1 (configuration not stated) | 165 °C
N[C@@H](Cc1ccc(C(F)(F)F)cc1)[C@H](O)c1ccc(Cl)nc1 (racemic) | 103 to 104 °C
CCc1nnc2c(N(CC)CC)nc3ccccc3n12 | 98 to 100 °C
O=[N+]([O-])c1ncn(COC(CO)CO)n1 | 132 °C
O=C1N=c2ccccc2=N1 | 138 to 140 °C
CCC(C)(CC)c1cc(NC(=O)c2c(OC)cccc2OC)sn1 | 243 to 244 °C
CSC(=O)c1c(C(F)F)nc(C(F)(F)F)c(C(=O)SC)c1N | 160 to 161 °C

SMILES | melting point
CO[C@@H]1C[C@H](C)N(c2ccc(C#N)c3ccccc23)C1 | 88 to 89 °C
CC(C)c1cc(C(=O)O)sc1C(C)C | 149 to 151 °C
NP(N)(=O)NCCCBr | 60 to 65 °C
CNC(=O)N1CCC(=C2c3ccc(Cl)cc3CCc3cccnc32)CC1 | 194 to 196 °C
C[C@H]([C@](O)(Cn1cncn1)c1ccc(F)cc1F)S(=O)(=O)N1CCN(c2ncccn2)CC1 | 101 to 108 °C
Cc1cccc2c1N(CC(=O)N1CC3CCC(CC3)C1)C(=O)C(NC(=O)Nc1cccc(O)c1)N=C2c1ccccc1F (configuration not stated) | 193 to 204 °C
CC1(C)C(=O)OC2=C1CC(OS(C)(=O)=O)C=C2 (configuration not stated) | 120 to 121 °C
CC(C)(CC(C)(Sc1cc(C(C)(C)C)c(O)c(C(C)(C)C)c1)Sc1cc(C(C)(C)C)c(O)c(C(C)(C)C)c1)Sc1cc(C(C)(C)C)c(O)c(C(C)(C)C)c1 | 93 to 115 °C
NC(=O)c1ccc(F)c2c1OCC(N(CCCc1c[nH]c3c(F)cc(F)cc13)C1CCC1)C2 (configuration not stated) | 136 °C
Cc1nc2cccc(N)c2s1 | 100 to 101 °C
CN1C(C2CCCCC2)Nc2ccc(S(=O)(=O)N3CCOCC3)cc2S1(=O)=O (configuration not stated) | 243 to 245 °C
CCOC(=O)/C=C/c1ccc(OCCCOCCOC)cc1Oc1ncc(C(F)(F)F)cc1Cl | 65 to 67 °C
CN1C(=O)C(C(=O)Nc2ccc(Oc3ccc(C(F)(F)F)cn3)cc2)C(=O)N(C)C1=O | 180 to 181 °C
COc1ccnc(CSc2nc3c(C(F)(F)F)cccc3[nH]2)c1C | 175 °C
CN1Cc2c(C(=O)OCCO)ncn2-c2ccccc2C1=O | 222 to 223 °C

Further lines, results first:

melting point | SMILES
164 to 165 °C | CC1=CC(=O)C(O)=CC1=CC=Cc1ccccc1
230 to 232 °C | CS(=O)(=O)Cc1cccc(-c2nc(=O)c3ccccc3s2)n1
214 to 215 °C | Cc1cc2c(cc1C)C(c1ccccc1)(C(F)(F)F)c1cc(C)c(C)cc1O2
192 to 195 °C | Cc1sc2c(c1CCN1CCC(c3noc4cc(F)ccc34)CC1)CCN(C(=O)c1ccccc1)C2
190 to 192 °C | O=C(Nc1c(C(O)(C(F)(F)F)C(F)(F)F)ccc2ccccc12)c1cccc(F)c1
124 °C | COc1cc(-c2cc(-c3ccccc3)c(N3CCOCC3)s2)nc(OC)c1OC
197 to 198 °C | CN(c1cccc2cc(-c3ncc(COCC(=O)O)s3)[nH]c12)S(=O)(=O)c1cccs1
66 °C | CCCCCCc1ccc(-c2ccc(C3CCC(C#N)(CCCCCC)CC3)cc2)cc1 (configuration not stated)
96 to 98 °C | COc1cccc2c1cc(C(=O)OCc1ccccc1)n2CC(=O)OC(C)(C)C
390 °C | O=C(O)c1ccc2ccc3ccc(C(=O)O)cc3c2c1
98 to 99 °C | COc1ccc(C2=CCN(c3ccc(Cl)c(Cl)c3)C2=O)cc1OCCN1CCCCC1
157 to 162 °C | Cc1sc2c(Br)c3ccccc3c(-c3cc(Br)c(O)c(C(C)C)c3)c2c1C
200 to 207 °C | Clc1ccc2nc(-c3ccccc3)c(-c3ccnnc3)n2n1
328 to 332 °C | CN1c2ccc(-c3ccc4ccccc4c3)cc2S(=O)(=O)c2cc(-c3ccc4ccccc4c3)ccc21
134 to 136 °C | CCOC(=O)Cc1c(CCc2ccc(O)cc2)oc2ccc(C#N)cc12
150 to 151 °C | CC(=NO)c1ccc(NS(C)(=O)=O)c(Oc2ccc(F)cc2F)c1
113 to 115 °C | Cc1cc(C)n(C(=O)CCNS(=O)(=O)c2ccccc2)n1
177 to 178 °C | COc1cc(COc2nn(-c3ccccc3)cc2/C=C/C(C)=O)ccc1OCc1nc(-c2ccco2)oc1C

melting point | SMILES
> 300 °C | COc1ccc(C2=NN(c3ccccn3)C(=O)CC2)cc1
79 to 81 °C | CCOC(=O)CC(O)c1ccc(-c2ccc([N+](=O)[O-])cc2)o1 (configuration not stated)
> 250 °C | N#Cc1cnc2sc(-c3cccc(C=O)c3)cc2c1Cl
85 to 86 °C | COc1ccc(COc2c(C)c(C)c3c(c2C)CC2(CCN(Cc4ccccc4)CC2)O3)cc1
111 to 112 °C | Cc1cc(C)c(C(=O)c2ccc(-c3ccccc3)cc2)c(C)c1
212 to 213 °C | Cc1c2c(c(C)c(NC(=O)CC(C)(C)C)c1-c1ccccc1)C(c1ccc(C(C)C)cc1)CO2 (configuration not stated)
246 to 250 °C | CCCCCCCCCCOc1ccc(-c2ccc(C(=O)O)cc2)cc1
134 to 135 °C | Cc1cc(Nc2ccnc(Nc3ccc(S(=O)(=O)N(CCN)C4CCNCC4)cc3)n2)ccc1F
275 to 277 °C | Cc1cc(-c2nc3cc(-c4ccncc4)cc(N)n3n2)oc1C
191 to 192 °C | CC(C)(O)c1c(F)ccc(-c2ccc3nc(-c4ccc(Cl)cc4)cn3c2)c1F
107 to 108 °C | COc1cc(C=O)ccc1OCc1ccc2ccccc2c1
136 to 141 °C | O=C(CCNC(=O)OCc1ccccc1)NC1C(C(=O)O)OC(n2cnc3c(NC(=O)c4ccccc4)ncnc32)C1O (configuration not stated)
153 °C | O=c1cc(-c2ccc(OCc3ccccc3)c(OCc3ccccc3)c2)oc2cc(OCCCCl)ccc12
180 to 182 °C | Fc1ccc(-c2nnc(S)nc2-c2ccc(F)cc2)cc1
250 to 252 °C | NC(=O)c1sc2nccc(N3CCN(c4ccccc4)CC3)c2c1N
126 to 127 °C | CCOC(=O)c1c(-c2ccccc2Cl)c2cc(CC)sc2[nH]c1=O
238 to 240 °C | COc1ccc(-c2coc3cc(O)ccc3c2=O)c(OC)c1
106 to 110 °C | CC(C)(C)OC(=O)CC(NC(=O)C1CCCN2C(=O)CCC(NC(=O)c3ccccc3)C(=O)N12)C(O)COCc1c(Cl)cccc1Cl (configuration not stated)
